From patent US10512656B2, “Compositions and methods for the treatment of lysosomal storage disorders and disorders characterized by lysosomal dysfunction” (Baylor College of Medicine, priority 2016, dated 2019)

Assays:
[1] = test system: TFEB; test: TFEB nuclear translocation in WT and Tsc2-/- MEFs; assay type: cell-based, mouse; conditions: Tsc2-/- MEFs (constitutively active mTORC1) and control MEFs
Procedure: (b) Quantification of TFEB subcellular localization (C, cytoplasmic; N, nuclear) after 24 h of trehalose treatment (Tre) or in untreated cells (UT). Scale bars in a, b is 40 μm. (c) Immunoblot analyses show expression levels of substrates downstream of mTORC1. Wild-type (WT) and TSC2 null MEF cells were treated with trehalose (Tre; 100 mM) for 24 h or left untreated. As controls, cells were treated with Torin 1 (300 nM) or rapamycin (300 nM) for 2 h before extracting the lysates. Phospho- and total S6K1 (P-S6K1 and T-S6K1), phospho- and total S6 (P-S6 and T-S6) and phospho- and total 4E-BP1 (P-4E-BP1 and T-4E-BP1) were detected as readouts of mTORC1 activity. […] (f) HeLa cells co-transfected with TFEB-3×FLAG and mTOR or (g) TFEB-3×FLAG and constitutively active mTOR (CA-mTOR, […]) constructs were treated with trehalose (100 mM for 24 h) or left untreated before immunofluorescent labelling of TFEB (red) and mTOR (green) with FLAG and mTOR antibodies, respectively. Scale bar, 10 μm (d-g). Data represent means±s.e.m.
For immunofluorescence assay, cells were grown on coverslips in 24-well plates. After the treatment, cells were washed with PBS and fixed with methanol for 10 min. Cells were then blocked with blocking reagent (0.1% saponin, 10% bovine serum in PBS) for 1 h and incubated with appropriate primary antibody(s) (1:100) for 3 h at room temperature. […]

[2] = test system: lysosomal genes; test: Real-time qPCR in primary cortical neuron cultures; assay type: cell-based, mouse; conditions: cortical neurons from WT and Cln3^Δex7-8 embryos, 100 mM trehalose
Procedure: Cortical and Hippocampal neurons were prepared from E17.5 and postnatal day 0-1 mice and plated on poly-D-lysine coated six-well plates (BD Biosciences) in Neurobasal medium supplemented with GlutaMAX-I (Invitrogen), B-27 and 1% FBS. At days in vitro (DIV) 4, neurons were treated with 100 mM trehalose. At DIV 8, neurons were collected and RNA extraction was performed.
Total RNA was extracted from the control and JNCL fibroblasts and from WT and Cln3^Δex7-8 cortical neuron cultures using the RNEasy kit (Qiagen) according to the manufacturer's instructions. Half of the mouse brain was processed for the RNA extraction and one microgram was used for complementary DNA synthesis by QuantiTect Reverse Transcription kit (Qiagen). The primers for PCR with reverse transcription reactions are listed in Table St Quantitative real-time PCR was performed by using iQ SYBR Green Supermix on the CFX96 Touch Real-Time Detection System (Bio-Rad Laboratories). Samples were heated for 3 min at 95° C. and amplified in 39 cycles for 11 s at 95° C., 45 s at 60° C. with last cycle of 10 s at 95° C., 5 s at 65° C. and 5 s at 95° C. Analyses were conducted using CFX manager software (Bio-Rad) and the threshold cycle (CT) was extracted from the PCR amplification plot. Relative gene expression was determined using the ΔΔCT method, normalizing to GAPDH (for human genes) and cyclophilin (for mouse genes). […]

[3] = test system: Akt; test: Akt activity in HeLa cells, time course immunoblot; assay type: cell-based, human
Procedure: FIG. 14. Akt phosphorylates TFEB at Ser467. […] Dashed boxes (upper row) show the location of the higher power inserts (lower row). (b) Subcellular fractionation of HeLa/TFEB cells incubated with the same kinase inhibitors. (c) Multi-alignment of TFEB amino-acid sequences from the following species: Ac, Anolis carolensis; Bt, Bos taurus; Dr, Danio rerio; Fc, Felix catus; Gg, gallus gallus; Hs, Homo sapiens; La, Loxodonta africana; Mm, Mus musculus; Rn, Rattus Norvegicus; Sh, Sarcophilus harrisii; Sp, Strongylocentrotus purpuratus; XI, Xenopus laevis. A consensus logo of Akt phosphorylation sites (generated at weblogo.berkeley.edu/logo.cgi) is aligned with TFEB sequences. Position 467 refers to the human protein sequence. (d) Subcellular localization of TFEB and TFEB(S467A). (e) Expression analysis of lysosomal and autophagy genes in HeLa cells transfected with TFEB or TFEB(S467A). […]
Brain tissue and cultured cells were collected and lysed in RIPA buffer (50 mM Tris-HCl, ph 7.4, 1% NP40, 0.5% Na-deoxycholate, 0.1% SDS, 150 mM NaCl, 2 mM EDTA and 50 mM NaF) including a cocktail of protease (Roche) and phosphatase (SIGMA) inhibitors. Protein concentrations were measured with the bicinchoninic acid protein assay kit (Pierce, Rockford, Ill.), using bovine serum albumin as standard. […] Western blot images were acquired by LAS 4000 (GE Healthcare) and quantified using ImageJ. […]

[4] = cited from earlier work

With `OC[C@H]1O[C@H](O[C@H]2O[C@H](CO)[C@@H](O)[C@H](O)[C@H]2O)[C@H](O)[C@@H](O)[C@@H]1O` [trehalose, a-D-glucopyranosyl a-D-glucopyranoside] the TFEB nuclear translocation [1] was “induce TFEB nuclear translocation even with an active mTORC1”, the “expression of lysosomal genes” value [2] was “transcriptional activation of lysosomal genes” and the Akt activity [3] was “inhibited Akt activity”. For the same compound, the “oral amount that may cause diarrhea and bloating” value ([4]; oral) was 40-50 grams per day and the safety and toxicity ([4]; orally and intravenously, doses substantially higher than the intended therapeutic dose) was “found to be safe”.
